Results published in PubChem BioAssay AID256 (DTP/NCI, 2004).
“And” between values parts separate entries of the source, which are not always exact repeats. Identical values can stand only once. Inconclusive results and toxic doses are left out. Rule for the calls: active = survival T/C of 150% or more; inactive = T/C below 125% in these data.

Test system: CD2F1 mice, L1210 leukemia ip, survival T/C
Assay: NCI In Vivo Anticancer Drug Screen. Data for tumor model L1210 Leukemia (intraperitoneal) in CD2F1 (CDF1) mice
Conditions: endpoint: mean survival time, higher = longer survival
Procedure, shortened: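 Antitumor effect is scored in animals hosting a serially transplanted tumor. Values compare compound-dosed animals against vehicle-only controls as a simple quotient.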

[1] = dose: 100.0 mg/kg/injection, schedule: Q04DX003 (ip), vehicle: saline with Tween-80
[2] = dose: 200.0 mg/kg/injection, schedule: Q04DX003 (ip), vehicle: saline with Tween-80
[3] = dose: 400.0 mg/kg/injection, schedule: Q04DX003 (ip), vehicle: saline with Tween-80
[4] = dose: 100.0 mg/kg/injection, schedule: Q01DX001 (ip), vehicle: saline
[5] = dose: 200.0 mg/kg/injection, schedule: Q01DX001 (ip), vehicle: saline
[6] = dose: 25.0 mg/kg/injection, schedule: Q04DX003 (ip), vehicle: saline
[7] = dose: 50.0 mg/kg/injection, schedule: Q04DX003 (ip), vehicle: saline
[8] = dose: 100.0 mg/kg/injection, schedule: Q04DX003 (ip), vehicle: saline
[9] = dose: 200.0 mg/kg/injection, schedule: Q04DX003 (ip), vehicle: saline
[10] = dose: 100.0 mg/kg/injection, schedule: Q04DX002 (ip), vehicle: saline with Tween-80
[11] = dose: 200.0 mg/kg/injection, schedule: Q04DX002 (ip), vehicle: saline with Tween-80
[12] = dose: 400.0 mg/kg/injection, schedule: Q04DX002 (ip), vehicle: saline with Tween-80
[13] = dose: 100.0 mg/kg/injection, schedule: Q04DX003 (ip), vehicle: Klucel (hydroxypropylcellulose) (HPC)
[14] = dose: 200.0 mg/kg/injection, schedule: Q04DX003 (ip), vehicle: Klucel (hydroxypropylcellulose) (HPC)
[15] = dose: 75.0 mg/kg/injection, schedule: Q01DX001 (ip), vehicle: saline
[16] = dose: 50.0 mg/kg/injection, schedule: Q01DX009 (ip), vehicle: saline with Tween-80
[17] = dose: 100.0 mg/kg/injection, schedule: Q01DX009 (ip), vehicle: saline with Tween-80
[18] = dose: 200.0 mg/kg/injection, schedule: Q01DX009 (ip), vehicle: saline with Tween-80
[19] = dose: 400.0 mg/kg/injection, schedule: Q04DX003 (ip), vehicle: saline

Measured: T/C

CCCCCCCCCCCCCCCCN(C)S(=O)(=O)c1cccc(S(=O)(=O)F)c1
inactive: [1] 95 % of control | [2] 101 % of control | [3] 102 % of control

CCC1(C)CC(=O)NC(=O)C1
inactive: dose: 2.5 mg/kg/injection, schedule: Q01DX009 (ip), vehicle: saline with Tween-80 97 % of control | dose: 5.0 mg/kg/injection, schedule: Q01DX009 (ip), vehicle: saline with Tween-80 100 % of control | dose: 10.0 mg/kg/injection, schedule: Q01DX009 (ip), vehicle: saline with Tween-80 94 % of control

N#CCCCSc1ccccc1
inactive: [4] 96 % of control | [5] 106 % of control

CNNCCC(=O)NC(C)C
inactive: [6] 106 % of control | [7] 103 % of control | [8] 101 % of control | [9] 91 % of control

O=c1oc(/C=C/c2ccccc2)nc2ccccc12
inactive: [10] 100 % of control | [11] 100 % of control | [12] 103 % of control

NC(=O)CCC(N)C(=O)O.[Cl-].[Cl-].[Cl-].[Cl-].[Pt+2] (stereo not drawn)
inactive: dose: 12.5 mg/kg/injection, schedule: Q01DX009 (ip), vehicle: water 107 % of control | dose: 25.0 mg/kg/injection, schedule: Q01DX009 (ip), vehicle: water 100 % of control | [6] 111 % of control | [7] 119 % of control

O=C(CNC1=NCCN1)Nc1ccc(NC(=O)c2ccc(C(=O)Nc3ccc(NC(=O)CNC4=NCCN4)cc3)cc2)cc1
inactive: dose: 12.0 mg/kg/injection, schedule: Q01DX Z (ip), vehicle: carboxymethylcellulose (CMC) 102 % of control | dose: 14.0 mg/kg/injection, schedule: Q01DX Z (ip), vehicle: carboxymethylcellulose (CMC) 106 % of control | dose: 16.0 mg/kg/injection, schedule: Q01DX Z (ip), vehicle: carboxymethylcellulose (CMC) 102 % of control | dose: 18.0 mg/kg/injection, schedule: Q01DX Z (ip), vehicle: carboxymethylcellulose (CMC) 106 % of control

CC(C)CC(NC(c1ccccc1)(c1ccccc1)c1ccccc1)C(=O)O (stereo not drawn)
inactive: [4] 102 % of control | [5] 95 % of control | dose: 400.0 mg/kg/injection, schedule: Q01DX001 (ip), vehicle: saline 102 % of control

Cc1c[nH]c(=O)n(CC(=O)C2(O)CCC3C4CCC5=CC(=O)CCC5(C)C4CCC32C)c1=O (stereo not drawn)
inactive: dose: 12.5 mg/kg/injection, schedule: Q04DX003 (ip), vehicle: Klucel (hydroxypropylcellulose) (HPC) 103 % of control | dose: 25.0 mg/kg/injection, schedule: Q04DX003 (ip), vehicle: Klucel (hydroxypropylcellulose) (HPC) 102 % of control | dose: 50.0 mg/kg/injection, schedule: Q04DX003 (ip), vehicle: Klucel (hydroxypropylcellulose) (HPC) 102 % of control | [13] 97 % of control | [14] 100 % of control

CN(C)C(=C1C=CC=C1)N(C)C
inactive: [15] 95 % of control

COc1ccc(C(Br)C(C)Br)cc1 (stereo not drawn)
inactive: [16] 97 % of control | [17] 94 % of control | [1] 98 % of control | [18] 97 % of control | [2] 98 % of control

CCOC1OC(C(O)CO)C(O)C(O)C1O (stereo not drawn)
inactive: [8] 101 % of control | [9] 103 % of control | [19] 101 % of control

COc1ccc(NC(=O)Nc2ccc(OC)cc2Cl)cc1
inactive: [10] 90 % of control | [11] 86 % of control | [12] 90 % of control

CCCc1ccc(OC)cc1
inactive: [16] 103 % of control | [17] 97 % of control | [1] 98 % of control | [2] 94 % of control

FC1(F)C(Cl)=[C]([Hg][C]2=C(Cl)C(F)(F)C(F)(F)C2(F)F)C(F)(F)C1(F)F
inactive: [15] 98 % of control

COc1cc2c(c(OC)c1OC)-c1cc(I)c(O)cc1[C@@H](NC(C)=O)CC2
inactive: [17] 98 % of control

Cc1nc(NN)c([N+](=O)[O-])c(NN)n1
inactive: [13] 89 % of control | [14] 95 % of control | dose: 400.0 mg/kg/injection, schedule: Q04DX003 (ip), vehicle: Klucel (hydroxypropylcellulose) (HPC) 102 % of control

Cc1ccccc1N
inactive: [17] 102 % of control | [18] 107 % of control

Cc1cc(N(CCCl)CCCl)ccc1C1N(Cc2ccc(N(C)C)cc2)CCCN1Cc1ccc(N(C)C)cc1
inactive: [17] 101 % of control | [1] 98 % of control | [18] 101 % of control | [2] 101 % of control | dose: 400.0 mg/kg/injection, schedule: Q01DX009 (ip), vehicle: saline with Tween-80 108 % of control | [3] 108 % of control

CCCCCCCCCCCCCCCCCC[N+]1(C)CCC1C (stereo not drawn)
inactive: dose: 1.56 mg/kg/injection, schedule: Q01DX001 (ip), vehicle: saline 101 % of control | dose: 3.12 mg/kg/injection, schedule: Q01DX001 (ip), vehicle: saline 102 % of control

CC1=C(N=[N+]=[N-])C(=O)c2ccccc2C1=O
inactive: [10] 91 % of control | [11] 100 % of control

CC1=C(Br)C(=O)C(C(O)(C(F)(F)F)C(F)(F)F)C(C)(C)C1 (stereo not drawn)
inactive: [1] 96 % of control | [2] 96 % of control

Cc1ccccc1Nc1c2ccccc2nc2ccccc12
inactive: dose: 12.5 mg/kg/injection, schedule: Q04DX003 (ip), vehicle: saline with Tween-80 98 % of control | dose: 25.0 mg/kg/injection, schedule: Q04DX003 (ip), vehicle: saline with Tween-80 104 % of control | dose: 50.0 mg/kg/injection, schedule: Q04DX003 (ip), vehicle: saline with Tween-80 87 % of control

O=c1[nH]cnc2c1nc(N1CCCC1)n2C1OC(CO)C(O)C1O (stereo not drawn)
inactive: dose: 12.5 mg/kg/injection, schedule: Q01DX005 (ip), vehicle: distilled water + Tween-80 102 % of control | dose: 25.0 mg/kg/injection, schedule: Q01DX005 (ip), vehicle: distilled water + Tween-80 98 % of control | dose: 50.0 mg/kg/injection, schedule: Q01DX005 (ip), vehicle: distilled water + Tween-80 100 % of control | dose: 100.0 mg/kg/injection, schedule: Q01DX005 (ip), vehicle: distilled water + Tween-80 102 % of control

Nc1cc(=O)c2cn[nH]c2[nH]1
inactive: dose: 12.5 mg/kg/injection, schedule: Q01DX005 (ip), vehicle: other 98 % of control | dose: 25.0 mg/kg/injection, schedule: Q01DX005 (ip), vehicle: other 102 % of control | dose: 50.0 mg/kg/injection, schedule: Q01DX005 (ip), vehicle: other 102 % of control | dose: 100.0 mg/kg/injection, schedule: Q01DX005 (ip), vehicle: other 95 % of control

CCC(=O)C(CC)(c1ccc(OC(C)=O)cc1)c1ccc(OC(C)=O)cc1
inactive: [8] 94 % of control | [9] 96 % of control | [19] 96 % of control

Br/C=C(\Br)C[N+]12CN3CN(CN(C3)C1)C2
inactive: dose: 25.0 mg/kg/injection, schedule: Q01DX009 (ip), vehicle: saline with Tween-80 107 % of control | [16] 105 % of control | [17] 104 % of control

C1CSCCSCCCSCCSC1
inactive: dose: 50.0 mg/kg/injection, schedule: Q04DX002 (ip), vehicle: saline with Tween-80 96 % of control | [10] 108 % of control | [11] 101 % of control

CC(=O)Nc1nc(C)c(CCCOc2ccc([N+](=O)[O-])cc2)c(=O)[nH]1
inactive: dose: 50.0 mg/kg/injection, schedule: Q01DX009 (ip), vehicle: Klucel (hydroxypropylcellulose) (HPC) 97 % of control | dose: 100.0 mg/kg/injection, schedule: Q01DX009 (ip), vehicle: Klucel (hydroxypropylcellulose) (HPC) 90 % of control | dose: 200.0 mg/kg/injection, schedule: Q01DX009 (ip), vehicle: Klucel (hydroxypropylcellulose) (HPC) 90 % of control

OCC1OC(n2ccc3c2ncn2ncnc32)C(O)C1O (stereo not drawn)
inactive: dose: 6.25 mg/kg/injection, schedule: Q01DX005 (ip), vehicle: water 114 % of control | dose: 12.5 mg/kg/injection, schedule: Q01DX005 (ip), vehicle: water 114 % of control | dose: 25.0 mg/kg/injection, schedule: Q01DX005 (ip), vehicle: water 117 % of control | dose: 50.0 mg/kg/injection, schedule: Q01DX005 (ip), vehicle: water 88 % of control and 106 % of control
